# Assay results reported in PubChem BioAssay (NCI).
#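 Method: 48-hour compound exposure of cells in 96-well plates, five concentrations, linear interpolation of endpoints. TGI: total growth inhibition.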
# Legend:
# Test in all cases: inhibition of tumour cell growth, NCI panel, 48 h
# 786-0 renal = system: 786-0 renal
# A498 renal = system: A498 renal
# A549 NSCLC = system: A549 NSCLC
# ACHN renal = system: ACHN renal
# BT-549 breast = system: BT-549 breast
# CAKI-1 renal = system: CAKI-1 renal
# COLO 205 colon = system: COLO 205 colon
# DU-145 prostate = system: DU-145 prostate
# EKVX NSCLC = system: EKVX NSCLC
# HCT-116 colon = system: HCT-116 colon
# HCT-15 colon = system: HCT-15 colon
# HL-60(TB) leukemia = system: HL-60(TB) leukemia
# HOP-62 NSCLC = system: HOP-62 NSCLC
# HOP-92 NSCLC = system: HOP-92 NSCLC
# HS 578T breast = system: HS 578T breast
# HT29 colon = system: HT29 colon
# IGROV1 ovarian = system: IGROV1 ovarian
# KM12 colon = system: KM12 colon
# M14 melanoma = system: M14 melanoma
# MALME-3M melanoma = system: MALME-3M melanoma
# MCF7 breast = system: MCF7 breast
# MDA-MB-231 breast = system: MDA-MB-231 breast
# MDA-MB-435 = system: MDA-MB-435
# MDA-N = system: MDA-N
# MOLT-4 leukemia = system: MOLT-4 leukemia
# NCI-H226 lung = system: NCI-H226 lung
# NCI-H23 lung = system: NCI-H23 lung
# NCI-H522 lung = system: NCI-H522 lung
# NCI/ADR-RES ovarian = system: NCI/ADR-RES ovarian
# OVCAR-3 ovarian = system: OVCAR-3 ovarian
# OVCAR-4 ovarian = system: OVCAR-4 ovarian
# OVCAR-5 ovarian = system: OVCAR-5 ovarian
# OVCAR-8 ovarian = system: OVCAR-8 ovarian
# PC-3 prostate = system: PC-3 prostate
# RPMI-8226 leukemia = system: RPMI-8226 leukemia
# SF-268 CNS = system: SF-268 CNS
# SF-295 CNS = system: SF-295 CNS
# SF-539 CNS = system: SF-539 CNS
# SK-MEL-2 melanoma = system: SK-MEL-2 melanoma
# SK-MEL-28 melanoma = system: SK-MEL-28 melanoma
# SK-MEL-5 melanoma = system: SK-MEL-5 melanoma
# SK-OV-3 ovarian = system: SK-OV-3 ovarian
# SN12C renal = system: SN12C renal
# SNB-19 CNS = system: SNB-19 CNS
# SR leukemia = system: SR leukemia
# SW-620 colon = system: SW-620 colon
# T-47D breast = system: T-47D breast
# U251 CNS = system: U251 CNS
# UACC-62 melanoma = system: UACC-62 melanoma
# UO-31 renal = system: UO-31 renal
# CCRF-CEM leukemia = system: CCRF-CEM leukemia
# HCC-2998 colon = system: HCC-2998 colon
# K-562 leukemia = system: K-562 leukemia
# LOX IMVI melanoma = system: LOX IMVI melanoma
# NCI-H460 lung = system: NCI-H460 lung
# RXF 393 renal = system: RXF 393 renal
# TK-10 renal = system: TK-10 renal
# SNB-75 CNS = system: SNB-75 CNS
# UACC-257 melanoma = system: UACC-257 melanoma
compound,measurement,setting,value
C=CCN1CCN([C@H](c2ccc(C(=O)N(CC)CC)cc2)c2cccc(OC)c2)CC1,TGI,786-0 renal,> 25 µM
same,TGI,A498 renal,> 25 µM
same,TGI,A549 NSCLC,> 25 µM
same,TGI,ACHN renal,> 25 µM
same,TGI,BT-549 breast,> 25 µM
same,TGI,CAKI-1 renal,> 25 µM
same,TGI,COLO 205 colon,> 25 µM
same,TGI,DU-145 prostate,> 25 µM
same,TGI,EKVX NSCLC,> 25 µM
same,TGI,HCT-116 colon,> 25 µM
same,TGI,HCT-15 colon,> 25 µM
same,TGI,HL-60(TB) leukemia,> 25 µM
same,TGI,HOP-62 NSCLC,> 25 µM
same,TGI,HOP-92 NSCLC,> 25 µM
same,TGI,HS 578T breast,> 25 µM
same,TGI,HT29 colon,> 25 µM
same,TGI,IGROV1 ovarian,> 25 µM
same,TGI,KM12 colon,> 25 µM
same,TGI,M14 melanoma,> 25 µM
same,TGI,MALME-3M melanoma,> 25 µM
same,TGI,MCF7 breast,> 25 µM
same,TGI,MDA-MB-231 breast,> 25 µM
same,TGI,MDA-MB-435,> 25 µM
same,TGI,MDA-N,> 25 µM
same,TGI,MOLT-4 leukemia,> 25 µM
same,TGI,NCI-H226 lung,> 25 µM
same,TGI,NCI-H23 lung,> 25 µM
same,TGI,NCI-H522 lung,> 25 µM
same,TGI,NCI/ADR-RES ovarian,> 25 µM
same,TGI,OVCAR-3 ovarian,> 25 µM
same,TGI,OVCAR-4 ovarian,> 25 µM
same,TGI,OVCAR-5 ovarian,> 25 µM
same,TGI,OVCAR-8 ovarian,> 25 µM
same,TGI,PC-3 prostate,> 25 µM
same,TGI,RPMI-8226 leukemia,> 25 µM
same,TGI,SF-268 CNS,> 25 µM
same,TGI,SF-295 CNS,> 25 µM
same,TGI,SF-539 CNS,> 25 µM
same,TGI,SK-MEL-2 melanoma,> 25 µM
same,TGI,SK-MEL-28 melanoma,> 25 µM
same,TGI,SK-MEL-5 melanoma,> 25 µM
same,TGI,SK-OV-3 ovarian,> 25 µM
same,TGI,SN12C renal,> 25 µM
same,TGI,SNB-19 CNS,> 25 µM
same,TGI,SR leukemia,> 25 µM
same,TGI,SW-620 colon,> 25 µM
same,TGI,T-47D breast,> 25 µM
same,TGI,U251 CNS,> 25 µM
same,TGI,UACC-62 melanoma,> 25 µM
same,TGI,UO-31 renal,> 25 µM
CCOC(=O)C1C(=O)C=C(c2cc(C)ccc2O)CC1c1cccc(Cl)c1 (configuration not stated),TGI,786-0 renal,> 100 µM
same,TGI,A549 NSCLC,49.1 µM
same,TGI,ACHN renal,51.7 µM
same,TGI,BT-549 breast,> 100 µM
same,TGI,CAKI-1 renal,> 100 µM
same,TGI,CCRF-CEM leukemia,94.7 µM
same,TGI,COLO 205 colon,34.9 µM
same,TGI,DU-145 prostate,> 100 µM
same,TGI,EKVX NSCLC,> 100 µM
same,TGI,HCC-2998 colon,69.8 µM
same,TGI,HCT-116 colon,> 100 µM
same,TGI,HCT-15 colon,13.2 µM
same,TGI,HL-60(TB) leukemia,63.5 µM
same,TGI,HOP-62 NSCLC,> 100 µM
same,TGI,HOP-92 NSCLC,61.5 µM
same,TGI,HS 578T breast,58 µM
same,TGI,HT29 colon,86.7 µM
same,TGI,IGROV1 ovarian,51.1 µM
same,TGI,K-562 leukemia,53.8 µM
same,TGI,KM12 colon,69 µM
same,TGI,LOX IMVI melanoma,57.4 µM
same,TGI,M14 melanoma,> 100 µM
same,TGI,MALME-3M melanoma,75.6 µM
same,TGI,MCF7 breast,74.5 µM
same,TGI,MDA-MB-231 breast,83.4 µM
same,TGI,MDA-MB-435,8.23 µM
same,TGI,MDA-N,29.8 µM
same,TGI,MOLT-4 leukemia,> 100 µM
same,TGI,NCI-H226 lung,73.5 µM
same,TGI,NCI-H23 lung,88.6 µM
same,TGI,NCI-H460 lung,> 100 µM
same,TGI,NCI-H522 lung,37 µM
same,TGI,NCI/ADR-RES ovarian,54.2 µM
same,TGI,OVCAR-3 ovarian,> 100 µM
same,TGI,OVCAR-4 ovarian,56.2 µM
same,TGI,OVCAR-5 ovarian,> 100 µM
same,TGI,OVCAR-8 ovarian,> 100 µM
same,TGI,PC-3 prostate,> 100 µM
same,TGI,RPMI-8226 leukemia,48.3 µM
same,TGI,RXF 393 renal,54.5 µM
same,TGI,SF-268 CNS,97.3 µM
same,TGI,SF-295 CNS,76.3 µM
same,TGI,SF-539 CNS,47 µM
same,TGI,SK-MEL-2 melanoma,46.7 µM
same,TGI,SK-MEL-5 melanoma,50.5 µM
same,TGI,SK-OV-3 ovarian,79.7 µM
same,TGI,SN12C renal,95.9 µM
same,TGI,SNB-19 CNS,44.2 µM
same,TGI,SR leukemia,34.9 µM
same,TGI,SW-620 colon,> 100 µM
same,TGI,T-47D breast,> 100 µM
same,TGI,TK-10 renal,57.7 µM
same,TGI,U251 CNS,40.7 µM
same,TGI,UACC-62 melanoma,47 µM
same,TGI,UO-31 renal,65.9 µM
COc1ccc(/C=C2\Oc3cc(OC(C)=O)ccc3C2=O)cc1,TGI,786-0 renal,> 100 µM
same,TGI,A549 NSCLC,> 100 µM
same,TGI,ACHN renal,> 100 µM
same,TGI,BT-549 breast,> 100 µM
same,TGI,CAKI-1 renal,86.7 µM
same,TGI,CCRF-CEM leukemia,> 100 µM
same,TGI,COLO 205 colon,> 100 µM
same,TGI,DU-145 prostate,> 100 µM
same,TGI,EKVX NSCLC,> 100 µM
same,TGI,HCC-2998 colon,> 100 µM
same,TGI,HCT-116 colon,> 100 µM
same,TGI,HCT-15 colon,> 100 µM
same,TGI,HL-60(TB) leukemia,> 100 µM
same,TGI,HOP-62 NSCLC,> 100 µM
same,TGI,HS 578T breast,> 100 µM
same,TGI,IGROV1 ovarian,> 100 µM
same,TGI,K-562 leukemia,> 100 µM
same,TGI,KM12 colon,> 100 µM
same,TGI,M14 melanoma,> 100 µM
same,TGI,MCF7 breast,> 100 µM
same,TGI,MDA-MB-231 breast,> 100 µM
same,TGI,MDA-MB-435,> 100 µM
same,TGI,MDA-N,> 100 µM
same,TGI,MOLT-4 leukemia,> 100 µM
same,TGI,NCI-H226 lung,> 100 µM
same,TGI,NCI-H23 lung,> 100 µM
same,TGI,NCI-H460 lung,> 100 µM
same,TGI,NCI-H522 lung,45.1 µM
same,TGI,NCI/ADR-RES ovarian,> 100 µM
same,TGI,OVCAR-3 ovarian,> 100 µM
same,TGI,OVCAR-4 ovarian,> 100 µM
same,TGI,OVCAR-8 ovarian,> 100 µM
same,TGI,PC-3 prostate,> 100 µM
same,TGI,RPMI-8226 leukemia,> 100 µM
same,TGI,RXF 393 renal,> 100 µM
same,TGI,SF-268 CNS,> 100 µM
same,TGI,SF-295 CNS,> 100 µM
same,TGI,SF-539 CNS,> 100 µM
same,TGI,SK-MEL-28 melanoma,> 100 µM
same,TGI,SK-MEL-5 melanoma,> 100 µM
same,TGI,SK-OV-3 ovarian,> 100 µM
same,TGI,SN12C renal,> 100 µM
same,TGI,SNB-19 CNS,> 100 µM
same,TGI,SNB-75 CNS,> 100 µM
same,TGI,SR leukemia,> 100 µM
same,TGI,SW-620 colon,> 100 µM
same,TGI,T-47D breast,> 100 µM
same,TGI,TK-10 renal,> 100 µM
same,TGI,U251 CNS,> 100 µM
same,TGI,UACC-257 melanoma,> 100 µM
same,TGI,UACC-62 melanoma,> 100 µM
same,TGI,UO-31 renal,> 100 µM
